Measurements taken from PubChem BioAssay (NCI).
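Grown in 96-well plates, cells were treated for 48 hours with each compound at five concentrations. Insufficient inhibition: endpoint recorded as highest concentration tested. At the TGI there is no net growth.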

Key:
Experiment in all cases: NCI tumour cell line growth inhibition, 48 h
DMS 114 small cell lung = test system: DMS 114 small cell lung
DMS 273 small cell lung = test system: DMS 273 small cell lung
XF 498 CNS = test system: XF 498 CNS
HOP-18 NSCLC = test system: HOP-18 NSCLC
LXFL 529 NSCLC = test system: LXFL 529 NSCLC

| SMILES | TGI (DMS 114 small cell lung) [µM] | TGI (DMS 273 small cell lung) [µM] | TGI (XF 498 CNS) [µM] | TGI (HOP-18 NSCLC) [µM] | TGI (LXFL 529 NSCLC) [µM] |
| --- | --- | --- | --- | --- | --- |
| CN(C)c1ccc(/C=C/C=C\C2=CC(=C\C=C/C=C3C=CC(=[N+](C)C)C=C3)/Sc3ccccc32)cc1 | 24.4 | > 100 |  |  |  |
| CC(=O)OCC(=O)[C@@]1(O)CC[C@H]2[C@@H]3CCC4=CC(=O)[C@H](C)C[C@]4(C)[C@H]3[C@@H](O)C[C@@]21C | > 100 | > 100 | > 100 | > 100 |  |
| O=S(=O)([O-])[O-].[Fe+2].c1ccc(/C(=N\Nc2ccccn2)c2ccccn2)cc1 | 3.73 | 11.5 |  | 14.6 | 12.3 |
| O=C(NO)c1ccc([N+](=O)[O-])cc1 | > 100 | > 100 | > 100 |  | 83.8 |
